Results: US12427210B2, “Compounds comprising a fibroblast activation protein ligand and use thereof” (priority 2019, dated 2025)
Where two headings read alike, the source gives them in different places. Numbered stars: 1 amine (or outer) side, 2 acyl side, 3 side chain; on linkers, the order of the positions; unused ones are H or OH. Bridge positions count the residues as written; N and C are the ends. Peptide text beside a SMILES is read from it. * marks the point of attachment. X1 = O=C(O)CN1CCN(CC(=O)O)CCN(CC(=O)N2CCN(Cc3cc(C[*:1])cc(C[*:2])c3)CC2)CCN(CC(=O)O)CC1; Hexanoyl = CCCCCC(=O)*

Experiments:
[1] = system: serine protease NS3 (a.a. 3-181) from Hepatitis C virus genotype 1a (mutant D168V)
[2] = system: Na+ channel (site 2); assay: SafetyScreen44 Na+ channel (site 2) (antagonist radioligand); format: binding; conditions: 10 μM
[3] = molecular target: T1, Cathepsin F (Homo sapiens, UniProt Q9UBX1); assay: biochemical; conditions: read-out: Percentage inhibition (%)
T1 sequence (Q9UBX1 271-484): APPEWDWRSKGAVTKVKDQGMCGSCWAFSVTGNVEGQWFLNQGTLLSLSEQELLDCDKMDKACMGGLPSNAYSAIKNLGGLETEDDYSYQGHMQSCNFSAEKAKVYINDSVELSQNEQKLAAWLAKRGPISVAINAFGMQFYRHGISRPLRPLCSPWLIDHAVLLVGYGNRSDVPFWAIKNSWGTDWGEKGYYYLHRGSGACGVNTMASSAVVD

[4] = molecular target: Ubiquitin carboxyl-terminal hydrolase 10 (Homo sapiens, UniProt Q14694); assay: biochemical; conditions: read-out: Percentage inhibition (%)
Sequence of Ubiquitin carboxyl-terminal hydrolase 10 (Q14694 whole entry): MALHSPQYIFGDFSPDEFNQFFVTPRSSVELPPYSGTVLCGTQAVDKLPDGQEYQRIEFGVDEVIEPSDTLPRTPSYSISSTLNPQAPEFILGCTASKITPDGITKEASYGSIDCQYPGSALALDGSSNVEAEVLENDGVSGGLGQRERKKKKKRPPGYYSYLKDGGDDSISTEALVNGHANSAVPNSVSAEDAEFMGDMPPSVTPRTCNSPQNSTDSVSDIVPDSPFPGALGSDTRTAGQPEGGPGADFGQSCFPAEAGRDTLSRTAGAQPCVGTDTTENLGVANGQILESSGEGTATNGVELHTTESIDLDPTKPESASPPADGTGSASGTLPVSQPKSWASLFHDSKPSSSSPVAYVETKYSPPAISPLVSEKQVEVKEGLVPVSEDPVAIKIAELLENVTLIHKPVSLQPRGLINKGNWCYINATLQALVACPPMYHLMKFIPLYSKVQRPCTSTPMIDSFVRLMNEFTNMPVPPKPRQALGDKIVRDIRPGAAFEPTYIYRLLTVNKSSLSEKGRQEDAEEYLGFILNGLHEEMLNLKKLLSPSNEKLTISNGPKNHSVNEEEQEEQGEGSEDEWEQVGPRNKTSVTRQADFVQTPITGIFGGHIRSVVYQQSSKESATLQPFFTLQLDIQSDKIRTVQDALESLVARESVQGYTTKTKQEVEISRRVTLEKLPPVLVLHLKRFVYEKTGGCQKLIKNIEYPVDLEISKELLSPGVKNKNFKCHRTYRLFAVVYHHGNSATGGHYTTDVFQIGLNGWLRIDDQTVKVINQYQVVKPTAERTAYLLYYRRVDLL

[5] = molecular target: Caspase-9 (Homo sapiens, UniProt P55211); assay: biochemical; conditions: read-out: Percentage inhibition (%)
Sequence of Caspase-9 (P55211 1-315 limits assumed, species assumed): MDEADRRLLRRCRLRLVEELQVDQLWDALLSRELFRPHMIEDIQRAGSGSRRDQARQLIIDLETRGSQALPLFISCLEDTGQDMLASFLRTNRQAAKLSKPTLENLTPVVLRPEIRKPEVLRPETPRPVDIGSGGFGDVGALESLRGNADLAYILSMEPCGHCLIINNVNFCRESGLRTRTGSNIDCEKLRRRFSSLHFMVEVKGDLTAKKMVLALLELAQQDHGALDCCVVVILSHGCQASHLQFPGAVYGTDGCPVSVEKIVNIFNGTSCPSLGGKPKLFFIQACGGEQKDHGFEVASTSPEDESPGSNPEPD
Sequence of Caspase-9 (P55211 331-416 limits assumed, species assumed): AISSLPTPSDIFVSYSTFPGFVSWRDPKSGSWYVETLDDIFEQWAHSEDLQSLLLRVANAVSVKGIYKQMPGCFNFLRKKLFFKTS

[6] = molecular target: 5-HT2A (h) (Homo sapiens, UniProt P28223); assay: biochemical; conditions: read-out: % Inhibition of Specific Binding
Sequence of 5-HT2A (h) (P28223 whole entry): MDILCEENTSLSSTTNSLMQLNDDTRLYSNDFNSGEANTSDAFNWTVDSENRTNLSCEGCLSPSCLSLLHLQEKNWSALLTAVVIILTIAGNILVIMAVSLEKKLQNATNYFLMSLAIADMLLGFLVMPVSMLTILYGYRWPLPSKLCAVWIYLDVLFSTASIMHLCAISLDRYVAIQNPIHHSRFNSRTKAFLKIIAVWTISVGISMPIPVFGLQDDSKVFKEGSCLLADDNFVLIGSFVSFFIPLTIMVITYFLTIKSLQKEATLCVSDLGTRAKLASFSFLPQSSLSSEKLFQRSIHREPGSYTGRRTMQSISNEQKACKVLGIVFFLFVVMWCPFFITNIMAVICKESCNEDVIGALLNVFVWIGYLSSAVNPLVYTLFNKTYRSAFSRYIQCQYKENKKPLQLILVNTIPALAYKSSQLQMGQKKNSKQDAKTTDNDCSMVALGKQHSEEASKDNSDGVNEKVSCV

[7] = molecular target: H2 (h) (Homo sapiens, UniProt P25021); assay: biochemical; conditions: read-out: % Inhibition of Specific Binding
Sequence of H2 (h) (P25021 whole entry): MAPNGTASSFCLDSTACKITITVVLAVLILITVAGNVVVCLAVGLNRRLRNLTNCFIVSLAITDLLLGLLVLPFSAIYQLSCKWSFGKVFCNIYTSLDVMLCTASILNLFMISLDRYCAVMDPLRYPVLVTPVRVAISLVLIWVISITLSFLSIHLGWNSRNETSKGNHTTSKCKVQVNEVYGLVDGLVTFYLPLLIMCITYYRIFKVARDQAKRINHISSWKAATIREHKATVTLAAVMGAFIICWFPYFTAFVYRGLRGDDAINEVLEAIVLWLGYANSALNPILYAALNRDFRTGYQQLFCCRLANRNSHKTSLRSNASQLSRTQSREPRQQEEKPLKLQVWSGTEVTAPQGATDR

[8] = molecular target: MAO-A (Rattus norvegicus, UniProt P21396); assay: biochemical; conditions: read-out: % Inhibition of Specific Binding
Sequence of MAO-A (P21396 whole entry): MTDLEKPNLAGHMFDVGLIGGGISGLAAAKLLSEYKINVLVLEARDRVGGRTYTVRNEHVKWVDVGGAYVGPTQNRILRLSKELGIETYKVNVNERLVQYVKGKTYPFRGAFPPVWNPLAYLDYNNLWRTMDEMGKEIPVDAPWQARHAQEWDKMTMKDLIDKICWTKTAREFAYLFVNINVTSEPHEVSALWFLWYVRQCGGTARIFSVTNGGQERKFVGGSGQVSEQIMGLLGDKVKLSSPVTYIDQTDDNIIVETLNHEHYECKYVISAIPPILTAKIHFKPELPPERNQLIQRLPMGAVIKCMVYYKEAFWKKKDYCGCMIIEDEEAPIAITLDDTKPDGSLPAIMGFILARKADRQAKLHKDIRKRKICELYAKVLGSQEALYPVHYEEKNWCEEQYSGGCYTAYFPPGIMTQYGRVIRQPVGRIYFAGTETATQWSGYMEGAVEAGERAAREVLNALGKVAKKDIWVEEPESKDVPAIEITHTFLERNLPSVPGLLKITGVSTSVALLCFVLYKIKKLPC

[9] = molecular target: DPP3 (Homo sapiens, UniProt Q9NY33); assay: biochemical; conditions: read-out: Percentage inhibition (%)
Sequence of DPP3 (Q9NY33 whole entry, species assumed): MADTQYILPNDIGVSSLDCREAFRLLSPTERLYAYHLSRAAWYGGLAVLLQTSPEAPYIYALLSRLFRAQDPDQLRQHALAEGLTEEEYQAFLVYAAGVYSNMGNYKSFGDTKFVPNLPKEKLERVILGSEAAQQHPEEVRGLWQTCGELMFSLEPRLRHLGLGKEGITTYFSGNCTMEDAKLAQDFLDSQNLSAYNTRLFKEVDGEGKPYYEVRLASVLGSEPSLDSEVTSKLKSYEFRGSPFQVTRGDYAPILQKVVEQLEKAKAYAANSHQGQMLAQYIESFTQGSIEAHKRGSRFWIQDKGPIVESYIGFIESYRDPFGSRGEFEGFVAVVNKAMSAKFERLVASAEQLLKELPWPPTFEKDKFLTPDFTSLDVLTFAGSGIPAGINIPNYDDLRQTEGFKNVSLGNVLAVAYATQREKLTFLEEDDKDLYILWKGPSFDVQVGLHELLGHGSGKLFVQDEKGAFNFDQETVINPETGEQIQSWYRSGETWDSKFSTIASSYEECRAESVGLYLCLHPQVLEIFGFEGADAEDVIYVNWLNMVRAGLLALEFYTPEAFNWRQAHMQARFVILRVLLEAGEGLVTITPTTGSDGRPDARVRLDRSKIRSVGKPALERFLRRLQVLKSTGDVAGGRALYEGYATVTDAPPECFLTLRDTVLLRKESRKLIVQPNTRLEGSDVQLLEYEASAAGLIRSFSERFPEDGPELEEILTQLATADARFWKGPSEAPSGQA

[10] = molecular target: T2, Ubiquitin carboxy-terminal hydrolase L1 (Homo sapiens, UniProt P09936); assay: biochemical; conditions: read-out: Percentage inhibition (%)
T2 sequence (P09936 1-223): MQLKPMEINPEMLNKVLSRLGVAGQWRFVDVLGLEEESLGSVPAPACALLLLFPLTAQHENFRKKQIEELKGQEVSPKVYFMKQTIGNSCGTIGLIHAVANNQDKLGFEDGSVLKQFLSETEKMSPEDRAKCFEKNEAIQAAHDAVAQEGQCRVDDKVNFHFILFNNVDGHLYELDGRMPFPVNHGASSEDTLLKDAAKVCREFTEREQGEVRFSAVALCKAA

[11] = molecular target: T3, Caspase-7 (Homo sapiens, UniProt P55210); assay: biochemical; conditions: read-out: Percentage inhibition (%)
T3 sequence (P55210 24-198 limits assumed): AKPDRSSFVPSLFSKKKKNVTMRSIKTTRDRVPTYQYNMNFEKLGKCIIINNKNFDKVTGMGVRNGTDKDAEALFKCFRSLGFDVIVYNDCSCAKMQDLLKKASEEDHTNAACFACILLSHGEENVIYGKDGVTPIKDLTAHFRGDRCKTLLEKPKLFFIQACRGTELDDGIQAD
T3 sequence (P55210 207-303 limits assumed): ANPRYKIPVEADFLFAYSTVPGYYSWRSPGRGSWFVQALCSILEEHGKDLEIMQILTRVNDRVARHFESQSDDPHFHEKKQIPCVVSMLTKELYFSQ

[12] = in vivo; conditions: mouse, iv; for clearance: in vivo; for AUC(0-inf) / C0 / half-life / Vd: plasma; for Vd: mouse plasma
[13] = molecular target: Cathepsin L (Homo sapiens, UniProt P07711); assay: biochemical; conditions: read-out: Percentage inhibition (%)
Sequence of Cathepsin L (P07711 114-333, species assumed): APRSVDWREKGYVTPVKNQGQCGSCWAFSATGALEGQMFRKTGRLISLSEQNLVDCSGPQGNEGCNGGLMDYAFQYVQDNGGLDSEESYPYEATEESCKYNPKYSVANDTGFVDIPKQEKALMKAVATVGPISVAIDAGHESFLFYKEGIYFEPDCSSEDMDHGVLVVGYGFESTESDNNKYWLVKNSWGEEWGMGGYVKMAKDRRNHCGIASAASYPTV

## CCCCCC(=O)N[C@H]1CSCc2cc(CSCCNC(=O)CN3CCN(CC(=O)O)CCN(CC(=O)O)CCN(CC(=O)O)CC3)cc(c2)CSC[C@@H](C(=O)O)NC(=O)[C@H](Cc2ccccc2)NC(=O)[C@H](CCC(N)=O)NC(=O)[C@H]([C@@H](C)O)NC(=O)[C@@H]2CCCN2C(=O)[C@@H]2CCCN2C1=O [Compound 3BP-3554, Hex-[Cys(tMeBn(DOTA-AET))-Pro-Pro-Thr-Gln-Phe-Cys]-OH]
[1]; 1 μM
  Percentage inhibition (%): −39%
[1]; 10 μM
  Percentage inhibition (%): −372%
[2]
  % Inhibition of Specific Binding: 14%
[3]
  inhibition at 1 µM: -23%
  inhibition at 10 µM: -25%
[4]
  inhibition at 1 µM: 1%
  inhibition at 10 µM: -1%
[5]
  inhibition at 1 µM: -1%
  inhibition at 10 µM: -2%
[6]
  inhibition at 10 µM: 4%
[7]
  inhibition at 10 µM: -16%
[8]
  inhibition at 10 µM: -25%
[9]
  inhibition at 1 µM: 2%
  inhibition at 10 µM: -1%
[10]
  inhibition at 1 µM: -4%
  inhibition at 10 µM: 4%
[11]
  inhibition at 1 µM: -1%
  inhibition at 10 µM: -7%
[12]; 4 nmol/kg
  clearance: 8.03 mL/min/kg
  AUC(0-inf): 0.0083 µM·h
  C0: 25.6 nM
  half-life: 23 min
[12]; 40 nmol/kg
  clearance: 11.8 mL/min/kg
  AUC(0-inf): 0.056 µM·h
  C0: 177 nM
  half-life: 59 min
[12]; 400 nmol/kg
  clearance: 8.03 mL/min/kg
  AUC(0-inf): 0.961 µM·h
  C0: 4970 nM
  half-life: 40 min
[12]; 4 nmol/kg, Vss, intravenous 4 nmol/kg
  Vd: 0.21 L/kg
[12]; 4 nmol/kg, Vz, intravenous 4 nmol/kg
  Vd: 0.26 L/kg
[12]; 40 nmol/kg, Vss, intravenous 40 nmol/kg
  Vd: 0.32 L/kg
[12]; 40 nmol/kg, Vz, intravenous 40 nmol/kg
  Vd: 1.02 L/kg
[12]; 400 nmol/kg, Vss, intravenous 400 nmol/kg
  Vd: 0.1 L/kg
[12]; 400 nmol/kg, Vz, intravenous 400 nmol/kg
  Vd: 0.21 L/kg
[13]
  inhibition at 1 µM: 0%
  inhibition at 10 µM: -6%

## CCCCCC(=O)N[C@H]1CSCc2cc(cc(CN3CCN(C(=O)CN4CCN(CC(=O)O)CCN(CC(=O)O)CCN(CC(=O)O)CC4)CC3)c2)CSC[C@@H](C(=O)N[C@@H](CC(=O)O)C(N)=O)NC(=O)[C@H](Cc2ccccc2)NC(=O)[C@H](CCC(N)=O)NC(=O)[C@H]([C@@H](C)O)NC(=O)[C@@H]2CCCN2C(=O)[C@@H]2CCCN2C1=O [Compound 3BP-3407, Hex-[Cys(tMeBn(DOTA-PP))-Pro-Pro-Thr-Gln-Phe-Cys]-Asp-NH2] (Hexanoyl-CPPTQFCD-NH2; linker 1-7 via X1)
[1]; 1 μM
  Percentage inhibition (%): 1%
[1]; 10 μM
  Percentage inhibition (%): −68%
[2]
  % Inhibition of Specific Binding: −7%
[3]
  inhibition at 1 µM: -3%
  inhibition at 10 µM: -24%
[4]
  inhibition at 1 µM: -2%
  inhibition at 10 µM: 5%
[5]
  inhibition at 1 µM: 5%
  inhibition at 10 µM: 8%
[6]
  inhibition at 10 µM: -2%
[7]
  inhibition at 10 µM: -5%
[8]
  inhibition at 10 µM: -5%
[10]
  inhibition at 1 µM: -2%
  inhibition at 10 µM: 4%
[11]
  inhibition at 1 µM: -3%
  inhibition at 10 µM: -3%
[13]
  inhibition at 1 µM: 3%
  inhibition at 10 µM: 6%
